The values below are quoted from earlier work in US8202858B2, “Vasopressin V1a antagonists” (priority 2004, dated 2012).

The data set deals with T1, V1a vasopressin receptor (Homo sapiens, UniProt P37288).
T1 construct: host or cells: patients (clinical study)
Conditions: patients with dysmenorrhoea, compared to placebo.

T1 sequence (P37288 whole entry): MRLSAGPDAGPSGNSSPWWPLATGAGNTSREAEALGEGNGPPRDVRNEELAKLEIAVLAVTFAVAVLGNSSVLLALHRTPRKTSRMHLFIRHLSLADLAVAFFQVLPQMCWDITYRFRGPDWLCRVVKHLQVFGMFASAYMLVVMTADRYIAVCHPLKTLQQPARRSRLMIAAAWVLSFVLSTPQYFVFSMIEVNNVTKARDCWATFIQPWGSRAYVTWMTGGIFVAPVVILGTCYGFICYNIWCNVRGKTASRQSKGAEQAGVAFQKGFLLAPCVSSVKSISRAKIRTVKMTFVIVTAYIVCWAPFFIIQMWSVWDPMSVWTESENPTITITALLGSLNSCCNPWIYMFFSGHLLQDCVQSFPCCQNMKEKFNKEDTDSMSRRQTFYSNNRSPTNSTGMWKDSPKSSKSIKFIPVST

Turning to `COc1ccc(S(=O)(=O)N2c3ccc(Cl)cc3[C@](O)(c3ccccc3Cl)[C@@H]2C(=O)N2CCC[C@H]2C(N)=O)cc1OC` [SR49059], the “amount of additional pain-killer taken” value is on record as “dose-related decrease in the amount of additional pain-killer taken” and the pain entry was “dose-related decrease in pain”.
